These results are taken from ChEMBL document CHEMBL1139694, “N,N'-Diarylcyanoguanidines as antagonists of the CXCR2 and CXCR1 chemokine receptors” (Bioorg Med Chem Lett, 2006).

The IC50 is the concentration at which inhibition is half-maximal. By pKa is commonly meant the pH at which an ionisable group is half protonated. A high value points to a group that holds its proton tightly.

Series [1] addresses T1, C-X-C chemokine receptor type 1 (Homo sapiens, UniProt P25024).
T1 sequence (P25024 whole entry): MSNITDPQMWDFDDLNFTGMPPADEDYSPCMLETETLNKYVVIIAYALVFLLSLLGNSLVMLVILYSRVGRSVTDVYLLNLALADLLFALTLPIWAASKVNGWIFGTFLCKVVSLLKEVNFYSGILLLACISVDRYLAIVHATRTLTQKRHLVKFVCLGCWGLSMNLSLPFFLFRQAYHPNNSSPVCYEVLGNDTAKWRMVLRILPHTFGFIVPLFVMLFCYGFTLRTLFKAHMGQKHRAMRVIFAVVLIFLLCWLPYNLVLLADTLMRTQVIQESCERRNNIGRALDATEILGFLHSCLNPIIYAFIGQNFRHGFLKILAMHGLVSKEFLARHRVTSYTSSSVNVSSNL
As to the kind of experiment: Displacement of [125I]IL8 from CXCR1 expressed in CHO cells. The class given is cell-based. In general terms: In a radioligand displacement assay an active substance lowers the binding of a labelled ligand.

For series [2], the target named is T2, C-X-C chemokine receptor type 2 (Homo sapiens, UniProt P25025).
T2 sequence (P25025 whole entry): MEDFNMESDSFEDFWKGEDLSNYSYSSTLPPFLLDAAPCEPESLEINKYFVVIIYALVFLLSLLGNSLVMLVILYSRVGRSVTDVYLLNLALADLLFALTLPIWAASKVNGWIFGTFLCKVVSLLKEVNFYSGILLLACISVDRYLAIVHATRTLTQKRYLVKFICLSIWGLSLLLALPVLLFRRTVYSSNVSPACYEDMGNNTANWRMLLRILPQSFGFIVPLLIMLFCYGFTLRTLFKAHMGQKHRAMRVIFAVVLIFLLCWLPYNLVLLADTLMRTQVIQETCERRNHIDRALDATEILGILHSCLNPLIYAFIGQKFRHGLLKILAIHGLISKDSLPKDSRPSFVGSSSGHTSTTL
As to the kind of experiment: Displacement of [125I]IL8 from CXCR2 expressed in CHO cells. It counts as cell-based.

In series [3] the target is Interleukin-8 receptors, CXCR1/CXCR2 (Homo sapiens) (UniProt P25025+P25024). Put plainly: Selectivity for CXCR2 over CXCR1. The class given is protein assay.
Series [4] can be described thus: Dissociation constant, pKa of the compound. The class given is physicochemical.

As to `CN(C)S(=O)(=O)c1c(Cl)ccc(N=C(NC#N)Nc2ccccc2F)c1O`, the IC50 in series [1] was 1550 nM; in series [2], 9 nM (antagonist).
On the same counts, the results for `Cc1ccccc1NC(=Nc1ccc(Cl)c(S(=O)(=O)N(C)C)c1O)NC#N` are 378 nM (antagonist) and 17 nM (antagonist).
On the same counts, the results for `CCC(CC)(NS(=O)(=O)c1c(Cl)ccc(N=C(NC#N)Nc2ccccc2C)c1O)N1C[C@@H](C)O[C@@H](C)C1` are 1080 nM and 17 nM (antagonist).
Take `CN(C)S(=O)(=O)c1c(Cl)ccc(N/C(=N/C#N)Nc2cccc(Cl)c2F)c1O`: the Ratio IC50 in series [3] was more than 200.
For the compound `CC(C)c1ccccc1N/C(=N\C#N)Nc1ccc(Cl)c(S(=O)(=O)N(C)C)c1O`, the concentration for half-maximal inhibition (IC50) was 7290 nM in series [1] and 112 nM (antagonist) in series [2].
On the same counts, the results for `CCC(CC)(NS(=O)(=O)c1c(Cl)ccc(N/C(=N/C#N)Nc2ccccc2Br)c1O)N1CCC(N)CC1` are 188 nM (antagonist) and 22 nM (antagonist).
On to `CN(C)S(=O)(=O)c1c(Cl)ccc(N/C(=N/C#N)Nc2ccccc2OCc2ccccc2)c1O`, for which the IC50 in series [1] is 293 nM (antagonist); in series [2], 9 nM (antagonist).
Regarding `CN(C)S(=O)(=O)c1c(Cl)ccc(N=C(NC#N)Nc2ccccc2C(F)(F)F)c1O`, the IC50 in series [1] was 411 nM (antagonist); in series [2] it was 12 nM (antagonist).
The corresponding values for `CCC(CC)(NS(=O)(=O)c1c(C)ccc(N=C(NC#N)Nc2ccccc2Br)c1O)N1CCOCC1` are 104 nM (antagonist) and 6 nM (antagonist).
Turning to `CCc1ccccc1NC(=Nc1ccc(Cl)c(S(=O)(=O)N(C)C)c1O)NC#N`, the IC50 is 512 nM (antagonist) in series [1] and 15 nM (antagonist) in series [2].
Take `Cc1ccc(N=C(NC#N)Nc2ccccc2Br)c(O)c1S(=O)(=O)N(C)C`: the IC50 is reported as 187 nM (antagonist) in series [1] and 7 nM (antagonist) in series [2].
Consider `CCC(CC)(NS(=O)(=O)c1c(Cl)ccc(N/C(=N/C#N)Nc2ccccc2Br)c1O)N1C[C@@H](C)O[C@@H](C)C1`, for which the 50% inhibitory concentration (IC50) in series [1] is 215 nM (antagonist); in series [2], 9 nM (antagonist). Besides, the pKa in series [4] worked out at 6.41.
As for `CN(C)S(=O)(=O)c1c(C(F)(F)F)ccc(N/C(=N/C#N)Nc2ccccc2Br)c1O`, the half-inhibitory concentration (IC50) is listed as 100 nM (antagonist) in series [1] and 7 nM (antagonist) in series [2].
Take `CN(C)S(=O)(=O)c1c(Cl)ccc(N/C(=N/C#N)Nc2ccccc2-c2ccccc2)c1O`: the 50% inhibitory concentration (IC50) is reported as 752 nM (antagonist) in series [1] and 13 nM (antagonist) in series [2].
On to `CN(C)S(=O)(=O)c1c(Cl)ccc(N/C(=N/C#N)Nc2ccccc2Br)c1O`, for which the 50% inhibitory concentration (IC50) is 55 nM (antagonist) in series [1] and 5 nM (antagonist) in series [2].
`CN(C)S(=O)(=O)c1c(F)ccc(N/C(=N/C#N)Nc2ccccc2Br)c1O`: the IC50 in series [1] is reported as 192 nM (antagonist); in series [2] it was 4 nM (antagonist).
Regarding `CN(C)S(=O)(=O)c1c(Cl)ccc(N=C(NC#N)Nc2cccc(Cl)c2F)c1O`, the IC50 in series [1] is 6200 nM; in series [2], 29 nM (antagonist).
On to `CCC(CC)(NS(=O)(=O)c1cccc(N/C(=N/C#N)Nc2ccccc2Br)c1O)N1CCOCC1`, for which the concentration for half-maximal inhibition (IC50) in series [1] is recorded as 582 nM (antagonist); in series [2], 12 nM (antagonist). For the same compound, in series [4], the pKa came to 6.48.
For `CCC(CC)(NS(=O)(=O)c1c(Cl)ccc(N/C(=N/C#N)Nc2ccccc2Br)c1O)N1CCC[C@@H]1C(=O)O`, the IC50 in series [1] was 22 nM (antagonist); in series [2], 16 nM (antagonist).
